The assay has as its target T1, ANT-(4′) (Staphylococcus aureus, UniProt P05057).
T1 construct: gene knt; pET plasmid pET-ANT-(4′) in E. coli BL21 (printed for MIC strains)
The assay is described as follows: thermal shift, SYPRO Orange. The class given is binding. As to conditions: Tris 10 mM pH 8.0, 0.2 mM NaCl; protein 4.4 µM and ligand 10 µM solutions mixed; blank Tm 58 ± 0.1. The text has this:
thermal shift, SYPRO Orange on ANT-(4′)

T1 sequence (P05057 whole entry): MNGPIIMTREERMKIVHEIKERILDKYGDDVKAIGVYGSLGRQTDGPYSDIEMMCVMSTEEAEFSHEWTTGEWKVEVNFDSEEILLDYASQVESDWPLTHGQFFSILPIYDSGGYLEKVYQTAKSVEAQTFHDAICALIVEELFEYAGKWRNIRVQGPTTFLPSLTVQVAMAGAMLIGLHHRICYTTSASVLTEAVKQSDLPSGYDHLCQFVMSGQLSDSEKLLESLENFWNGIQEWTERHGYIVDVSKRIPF

`NC[C@H]1O[C@H](O[C@H]2[C@H](O)[C@@H](O[C@H]3O[C@H](CO)[C@@H](O)[C@H](N)[C@H]3O)[C@H](N)C[C@@H]2N)[C@H](O)[C@@H](O)[C@@H]1O` [compound 1, Kanamycin A]: the 1 worked out at 61.5 ± 0.1 °C.

With `NC[C@H]1O[C@H](O[C@H]2[C@H](O)[C@@H](O)[C@H](N)C[C@@H]2N)[C@H](N)[C@@H](O)[C@@H]1O` [compound 4, 4-O-(2,6-di-Deoxy-α-D-2,6-di-amine-glucopyranosyl)-2-deoxy-streptamine], the 4 was determined as 61 ± 0.1 °C.

(Values after article PMC6783941, “Synthesis of Ring II/III Fragment of Kanamycin: A New Minimum Structural Motif for Aminoglycoside Recognition” (Antibiotics, 2019).)
